Laboratory results reported in patent publication US10202371B2, “Oxazolidin-2-one-pyrimidine derivatives and the use thereof as phosphatidylinositol-3-kinase inhibitors” (Novartis AG, priority 2012, dated 2019).

What was measured:
PI3Kgamma = PI3Kgamma (Homo sapiens (Human), UniProt P48736); experiment: Biochemical assay PI3Kgamma (Adapta TR-FRET); settings: read-out: PI3Kg/IC50
Source text: The TR-FRET Adapta™ Universal Kinase Assay Kit was purchased from Invitrogen
Corporation (Carlsbad/CA, USA) (Cat. No. PV5099). The kit contains the following reagents: Adapta Eu-anti-ADP Antibody (Europium labeled anti-ADP antibody in HEPES buffered saline, Cat. No. PV5097), Alexa Fluor® 647-labeled ADP tracer (Alexa Fluor® 647-labeled ADP tracer in HEPES buffered saline, Cat. No. PV5098), proprietary TR-FRET dilution buffer pH 7.5 (Cat. No. PV3574).
PIK3CD substrate Phosphatidylinositol was obtained from Invitrogen (vesicules consisting of 2 mM PI in 50 mM HEPES pH7.5; Cat. No. PV5371).
Time-Resolved Fluorescence Resonance Energy Transfer (TR-FRET) is a technology based on energy transfer between two adjacent dyes, from an excited electron in one dye (the donor) to an electron of an adjacent dye (the acceptor) through resonance, then released as a photon. This energy transfer is detected by an increase in the fluorescence emission of the acceptor, and a decrease in the fluorescence emission of the donor. TR-FRET assays for protein kinases use a long-lifetime lanthanide Terbium or Europium chelates as the donor species which overcome interference from compound autofluorescence or light scatter from precipitated compounds, by introducing a delay after excitation by a flashlamp excitation source. Results are often expressed as a ratio of the intensities of the acceptor and donor fluorophores. The ratiometric nature of such a value corrects for differences in assay volumes between wells, as well as corrects for quenching effects due to colored compounds. The Adapta™ assay can be divided into two phases: a kinase reaction phase and an ADP detection phase. In the kinase reaction phase, all kinase reaction components are added to the well and the reaction is allowed to incubate for a set period of time specific for each kinase. After the reaction, a detection solution of Eu-labeled anti-ADP antibody, Alexa Fluor® 647-labeled ADP tracer, and EDTA (to stop the kinase reaction) are added to the assay well. ADP formed by the kinase reaction will displace the Alexa Fluor® 647-labeled ADP tracer from the antibody, resulting in a decrease in TR-FRET signal. In the presence of an inhibitor, the amount of ADP formed by the kinase reaction is reduced, and the resulting intact antibody-tracer interaction maintains a high TR-FRET signal. In the Adapta™ assay, the donor (Europium-anti-ADP antibody) is excited at 340 nm and will transfer its energy to the acceptor (Alexa Fluor® 647-labeled ADP tracer). The emission from the Alexa Fluor® 647 can be monitored with a filter centered at 665 nm because it is located between the emission peaks of the donor, which is measured at 615/620 nm.
50 nL of compound dilutions were dispensed onto white 384-well small volume polystyrene plate as described in section 2.2. Then 5 μL of PI3Kg and PI3Kd and lipid substrate (PI or PIP2:PS) followed by 5 μL of ATP (final assay volume 10 μL) are incubated at RT. The standard reaction buffer for the Adapta™ TR-FRET assay contained 10 mM Tris-HCl pH 7.5, 3 mM MgCl2, 50 mM NaCl, 1 mM DTT, 0.05% CHAPS. Reactions were stopped with 5 μL of a mixture of EDTA containing the Eu-labeled anti-ADP antibody and the Alexa Fluor® 647-labeled ADP tracer in TR-FRET dilution buffer (proprietary to IVG). Plates are read 15 to 60 mins later in a Synergy2 reader using an integration time of 0.4 seconds and a delay of 0.05 seconds. […] The standard compound NVP-BGT226 was used as a reference compound and included in all assay plates in the form of 16 dilution points in duplicate.
Data are analyzed using Excel fit software or Graphpad Prism. EC50 values were derived by fitting a sigmoidal dose-response curve to a plot of assay readout over inhibitor concentration. All fits were performed with the program XLfit4 (ID Business Solutions, Guildford, UK). […] All fits were performed with the program XLfit4 (ID Business Solutions, Guildford, UK).

human mTOR (GST-mTOR) = human mTOR (GST-mTOR) (Homo sapiens (Human), UniProt P42345); experiment: Binding assay mTor (Lanthascreen kinase binding assay); settings: Tracer-314
Source text: Catalytically active human PI3Kα, PI3Kβ, PI3Kδ, and mTOR were cloned, expressed and purtified as described (Maira S M, Stauffer F, Brueggen J, Furet P, Schnell C, Fritsch C, Brachmann S, Chène P, de Pover A, Schoemaker K, Fabbro D, Gabriel D, Simonen M, Murphy L, Finan P, Sellers W, Garcia-Echeverria C (2008), Mol Cancer Ther. 7:1851-63 and Maira S M, Pecchi S, Brueggen J, Huh K, Schnell C, Fritsch C, Nagel T, Wiesmann M, Brachmann S, Dorsch M, Chène P, Schoemaker K, De Pover A, Menezes D, Fabbro D, Sellers W, Garcia-Echeverria C, Voliva CF (2011), Mol. Cancer Ther. accepted).
TR-FRET assays for protein kinases uses a long-lifetime lanthanide Terbium or Europium chelates as the donor species which overcome interference by compound autofluorescence or light scatter from precipitated compounds, by introducing a delay after excitation by a flashlamp excitation source. Results are often expressed as a ratio of the intensities of the acceptor and donor fluorophores. The ratiometric nature of such a value corrects for differences in assay volumes between wells, as well as corrects for quenching effects due to colored compounds.
Binding Assays are based on the binding and displacement of an Alexa Fluor® 647-labeled, ATP-competitive kinase inhibitors to the kinase of interest. Invitrogen's “Kinase Tracers” have been developed to address a wide range of kinase targets and are based on ATP-competitive kinase inhibitors, making them suitable for detection of any compounds that bind to the ATP site or to an allosteric site altering the conformation of the ATP site. Inhibitors that bind the ATP site include both Type I kinase inhibitors, which bind solely to the ATP site, and Type II inhibitors (e.g., Gleevec®/Imatinib, Sorafenib, BIRB-796), which bind to both the ATP site and a hydrophobic site exposed in the DFG-out (non-active) conformation. […] The sole exception was a substrate-competitive compound, and thus not a true allosteric inhibitor.
In contrast to most fluorescence-based kinase activity assays, LanthaScreen® Eu^3+ Kinase Binding Assays can be read continuously, which facilitates evaluation of compounds with slow binding kinetics. Also, unlike most activity assays, binding assays can be performed using either active or non-activated kinase preparations, which enables characterization of compounds that bind preferentially to non-activated kinases, such as Gleevec®/imatinib and some allosteric inhibitors.
In the Lanthascreen™ kinase binding assay, the donor (Eu^3+-anti-GST antibody) is excited at 340 nm and will transfer its energy to the acceptor (Alexa Fluor® 647-labeled ATP-competitive kinase inhibitor=Tracer-314). The emission from the Tracer-314 (Alexa Fluor® 647 inhibitor) can be monitored with a filter centered at 665 nm because it is located between the emission peaks of the donor, which is measured at 615/620 nm. The binding of both, the Tracer-314 and Eu^3+-anti-GST antibody, to the kinase results in a high degree of FRET from the Eu^3+-donor fluorophore to the Alexa-Fluor® 647-acceptor fluorophore on the Tracer-314. Binding of an inhibitor to the kinase competes for binding with the tracer, resulting in a loss of FRET.
50 nL of compound dilutions were dispensed onto white 384-well small volume polystyrene plate as described in section 2.2. Then 5 μL of GST-mTOR and Europium-anti-GST antibody followed by 5 μL of tracer-314 (final assay volume 10 μL) are incubated at RT. The standard reaction buffer for the Lanthascreen™ kinase binding assay contained 50 mM HEPES pH 7.5, 5 mM MgCl2, 1 mM EGTA, 0.01% Pluronic F-127. Plates are read 60 mins later in a Synergy2 reader using an integration time of 0.2 microseconds and a delay of 0.1 microseconds.
To calculate the emission ratio, the signal emitted at 665 nm from the acceptor (Alexa Fluor® 647-labeled Tracer-314) is divided by the signal emitted at 620 nm from the donor (Eu^3+ anti-GST antibody) […]

[1] = Photostability in light stability chamber; type: physicochemical; settings: 1.0 mg/ml in ethanol, 19620 kJ/m^2 over 13 h, 15° C., UPLC 254 nm
Method: Samples investigated for light stability were treated in a light stability chamber (Atlas CPS+, Serial Number 0704013). Solutions of 1.0 mg/ml in ethanol were prepared for each molecule and aliquots of 0.5 mL were dispensed into suitable micro tubes. All measurements were done in duplicate and compared to a reference wrapped in aluminium foil during light exposure. Solutions were exposed to 19620 kJ/m^2 over 13 h. Samples were kept at 15° C. during the experiment. […] The peak areas were automatically integrated, and the degradation percentage calculated as the difference between the corresponding peak area percentage of the reference sample and the average peak area percentage of the exposed samples (duplicate).

PI3Kgamma, sequence (P48736 whole entry, species assumed): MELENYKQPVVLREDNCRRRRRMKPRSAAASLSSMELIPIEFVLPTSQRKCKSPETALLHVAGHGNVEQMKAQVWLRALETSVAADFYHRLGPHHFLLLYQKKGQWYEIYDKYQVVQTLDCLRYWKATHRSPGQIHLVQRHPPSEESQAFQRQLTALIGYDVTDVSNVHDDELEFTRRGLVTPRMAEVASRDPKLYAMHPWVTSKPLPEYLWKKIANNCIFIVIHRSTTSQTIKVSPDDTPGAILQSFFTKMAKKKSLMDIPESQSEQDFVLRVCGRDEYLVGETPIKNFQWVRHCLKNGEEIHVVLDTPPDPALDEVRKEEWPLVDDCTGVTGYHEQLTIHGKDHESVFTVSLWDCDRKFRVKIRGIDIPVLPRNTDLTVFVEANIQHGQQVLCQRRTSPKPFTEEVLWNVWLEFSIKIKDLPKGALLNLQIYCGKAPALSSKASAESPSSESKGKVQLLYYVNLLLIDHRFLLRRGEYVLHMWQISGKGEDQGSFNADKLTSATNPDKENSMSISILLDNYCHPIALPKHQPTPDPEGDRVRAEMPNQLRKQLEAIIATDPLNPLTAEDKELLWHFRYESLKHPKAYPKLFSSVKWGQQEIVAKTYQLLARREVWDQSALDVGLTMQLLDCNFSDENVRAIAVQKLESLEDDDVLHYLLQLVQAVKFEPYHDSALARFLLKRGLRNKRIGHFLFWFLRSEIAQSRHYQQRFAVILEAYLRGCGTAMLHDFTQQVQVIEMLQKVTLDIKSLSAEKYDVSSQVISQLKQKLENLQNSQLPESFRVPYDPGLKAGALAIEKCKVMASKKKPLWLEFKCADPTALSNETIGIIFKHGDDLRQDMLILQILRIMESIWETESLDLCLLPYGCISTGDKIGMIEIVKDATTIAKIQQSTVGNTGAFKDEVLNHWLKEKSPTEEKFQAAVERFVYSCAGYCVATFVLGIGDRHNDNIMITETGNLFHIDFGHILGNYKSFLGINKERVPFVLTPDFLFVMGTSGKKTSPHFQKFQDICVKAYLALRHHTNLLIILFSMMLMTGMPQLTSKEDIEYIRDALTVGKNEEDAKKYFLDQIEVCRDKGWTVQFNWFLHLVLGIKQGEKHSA

| IC50 (PI3Kgamma) [µM] | IC50 (human mTOR (GST-mTOR)) [µM] | % degradation in photostability assay (average) [1] [%] | Structure (SMILES) |
| --- | --- | --- | --- |
| 4.5 | – | – | CC[C@H]1[C@@H](c2ccccc2)OC(=O)N1c1cc(-c2cnc(N)nc2C(F)(F)F)nc(N2CCOCC2)n1 [Example 4] |
| 7 | 4.7 | 0 | CC[C@H]1[C@H](c2cccc(OC)c2)OC(=O)N1c1cc(-c2cnc(N)nc2C(F)(F)F)nc(N2CCOCC2)n1 [Example 6] |
